Experimental data published in patent publication US20140121273A1, “METHOD FOR TREATMENT OF MAGNESIUM AND POTASSIUM DEFICIENCIES” (priority 2005, published 2014).
Where two headings read alike, the source gives them in different places.

How the values were obtained:
[1] = Adverse events in the placebo-controlled study; assay type: in vivo, human; details: among the 34 patients in the study; one withdrew (diarrhea 30 minutes after dosing)
Procedure: A randomized, double blind, placebo-controlled study was performed at Hartford Hospital. People taking dofetilide or sotalol therapy for at least 5 half-lives were eligible for inclusion. […] After enrollment, people who discontinued their sotalol or dofetilide or altered their dosage of these drugs were excluded as well. Thirty-four participants were enrolled in the study. Three were subsequently excluded because the antiarrhythmics they were using were discontinued or the dose of the antiarrhythmics changed during the study. Given the known baseline differences in QTc intervals among men and women, each gender was randomized separately using stratified allocation. […] All of the other baseline intracellular elements evaluated (phosphorus, chloride, calcium, potassium, and sodium) were within the reference range although the phosphorus was at the top of the range (average=16.7±2.8 mEq/IU with reference range of 14.2-17.0 mEq/IU).
Participants received three tablets of magnesium L-lactate (Mag-Tab SR®; Niche Pharmaceuticals; Roanoke, Tex.) or matching placebo twice daily (504 mg of elemental magnesium daily) for 48 hours (i.e. t=0, 12 h, 24 h, 36 h, and 48 h). A 12-lead electrocardiogram (ECG) was recorded at 25 mm/sec at rest prior to initiation of treatment (i.e. baseline) and at 3 and 51 hours after the first dose of magnesium (i.e. t=3 h and t=51 h) for each participant. […]

[2] = tested on: people taking dofetilide or sotalol therapy; experiment: 12-lead electrocardiogram intervals, randomized, double blind, placebo-controlled study of oral magnesium L-lactate; assay type: in vivo, human; details: for QTc Interval 3 Hour / QTc Interval 51 Hour / QTc Baseline: Bazett's formula; for QTc interval reduction: all magnesium-treated patients on sotalol or dofetilide; for QT interval reduction: magnesium therapy
Procedure: (§1) A randomized, double blind, placebo-controlled study was performed at Hartford Hospital. People taking dofetilide or sotalol therapy for at least 5 half-lives were eligible for inclusion. […] After enrollment, people who discontinued their sotalol or dofetilide or altered their dosage of these drugs were excluded as well. Thirty-four participants were enrolled in the study. Three were subsequently excluded because the antiarrhythmics they were using were discontinued or the dose of the antiarrhythmics changed during the study. Given the known baseline differences in QTc intervals among men and women, each gender was randomized separately using stratified allocation. Patients completing the study (n=30) were well matched for baseline characteristics, which are reflected in Table 1. Intracellular concentrations of essential elements were available for 19 subjects. Overall 63.2% of patients (regardless of experimental group) had baseline intracellular magnesium concentrations below the normal reference range of 33.9-41.9 mEq/IU with an average level of 32.6±2.2 mEq/IU. All of the other baseline intracellular elements evaluated (phosphorus, chloride, calcium, potassium, and sodium) were within the reference range although the phosphorus was at the top of the range (average=16.7±2.8 mEq/IU with reference range of 14.2-17.0 mEq/IU).
(§2) Participants received three tablets of magnesium L-lactate (Mag-Tab SR®; Niche Pharmaceuticals; Roanoke, Tex.) or matching placebo twice daily (504 mg of elemental magnesium daily) for 48 hours (i.e. t=0, 12 h, 24 h, 36 h, and 48 h). A 12-lead electrocardiogram (ECG) was recorded at 25 mm/sec at rest prior to initiation of treatment (i.e. baseline) and at 3 and 51 hours after the first dose of magnesium (i.e. t=3 h and t=51 h) for each participant. A single blinded investigator read all ECGs using a precision ruler of 0.5 mm scale (Schlaedler-Quinzel, Inc. Parsippany, N.J.).
QT intervals were measured from the onset of the Q wave (or R/S wave if there was no Q wave) to the end of the T wave where it merges with the isoelectric baseline. The beginning and end of the QRS complex were determined by visual inspection, whereas the end of the T-wave was obtained by extrapolating the descending slope of the T-wave to the isoelectric baseline. When au wave interrupts the down sloping of the T-wave, the visible portion of the T wave was extrapolated to the T-P baseline to define the end of the T-wave. The R-R interval was measured from the peak of one R wave to the peak of an adjacent R wave. The QTc interval was corrected for heart rate using Bazett's formula [QTc=QT/(RR)^1/2].
(§3) Continuous data was expressed by a mean±SD. A p value less than 0.05 was considered statistically significant. The primary analysis was the intergroup comparisons of the change in QTc interval from baseline at 3 hours and 51 hours using Bazett's formula. Evaluations of the QRS, QT, and RR intervals were compared between groups at each time period as well. Mann-Whitney tests were used for all statistical analyses of continuous ECG data. Intracellular element intragroup comparisons were performed with a paired t-test. Chi^2 or Fischer's Exact tests were used for categorical comparisons. Statistical analysis was performed using SPSS version 5.

[3] = Intracellular elemental concentrations in sublingual buccal smears (EXAtest, energy-dispersive X-ray analysis), same study; assay type: in vivo, human; details: for Intracellular magnesium concentration, Baseline: before study therapy; for Intracellular magnesium concentration, Baseline / Intracellular magnesium concentration, Post-Dosing: buccal cells, magnesium group n = 10, normal reference range 33.9-41.9, mean ± SD; for Intracellular magnesium concentration, Post-Dosing: following the third dose
Procedure: as §1, §2
Sublingual buccal smears were obtained from a subgroup of participants prior to initiation of study therapy and following the third dose of magnesium using EXAtest™ kits (Intracellular Diagnostics, Inc.; Foster City, Calif.). Samples were analyzed by energy-dispersive X-ray Analysis for intracellular concentrations of magnesium, phosphorus, chloride, calcium, potassium, and sodium. The use of buccal cell smears for intracellular magnesium was performed because it is noninvasive, reproducible, and correlates well (r=0.68, p<0.002) with atrial cell intracellular magnesium.
as §3

[4] = oral magnesium salts currently used to treat magnesium deficiencies; cited from earlier work
[5] = tested on: patients with atrial fibrillation; details: oral, two 6-month studies; cited from earlier work
[6] = cited from earlier work
[7] = 3 hours after first dose, 504 mg elemental magnesium daily, oral, n = 14, mean ± SD
[8] = 51 hours after first dose, 504 mg elemental magnesium daily for 48 hours, oral, n = 14, mean ± SD
[9] = baseline, before first dose, magnesium group n = 14, on sotalol or dofetilide, mean ± SD

## C[C@H](O)C(=O)[O-].C[C@H](O)C(=O)[O-].[Mg+2] [magnesium L-lactate]
[1]
  patients who experienced loose bowel movements: 2 patients
[2]; [7]
  QT Interval 3 Hour: 115300 ± 11100 µM·h
  RR Interval 3 Hour: 230400 ± 30860 µM·h
  QTc Interval 3 Hour: 121100 ± 17700 µM·h
[2]; 3 hours after first dose, 504 mg elemental magnesium daily, oral, n = 14, mean ± SD, listed as Magnesium
  QTc Interval 3 Hour: 121100 ± 17700 µM·h
[2]; 3 hours after first dose, three tablets twice daily (504 mg elemental magnesium daily), oral, n = 14, mean ± SD
  QRS Interval 3 Hour: 39890 ± 11600 µM·h
[2]; 3 hours post-dosing
  QTc interval reduction: 37 ms
[2]; 3 hours, group receiving diuretics, mean ± SD
  QTc interval reduction from baseline: 51.1 ± 42 ms
[2]; 3 hours
  QT interval reduction: isms
[2]; 3 hours, no diuretic group, mean ± SD
  QTc interval reduction from baseline: 25.5 ± 27.9 ms
[2]; [8]
  QT Interval 51 Hour: 115800 ± 12400 µM·h
  RR Interval 51 Hour: 241200 ± 32670 µM·h
  QTc Interval 51 Hour: 124800 ± 14300 µM·h
[2]; 51 hours after first dose, 504 mg elemental magnesium daily for 48 hours, oral, n = 14, mean ± SD, listed as Magnesium
  QTc Interval 51 Hour: 124800 ± 14300 µM·h
[2]; 51 hours after first dose, three tablets twice daily for 48 hours (504 mg elemental magnesium daily), oral, n = 14, mean ± SD
  QRS Interval 51 Hour: 36190 ± 12200 µM·h
[2]; 51 hours
  QTc interval reduction: 25 ms
  QT interval reduction: 14 ms
[2]; 51 hours, group receiving diuretics, mean ± SD
  QTc interval reduction from baseline: 24.7 ± 24.3 ms
[2]; 51 hours, no diuretic group, mean ± SD
  QTc interval reduction from baseline: 26.2 ± 27.4 ms
[2]; [9]
  QTc Baseline: 131200 ± 15000 µM·h
  QT Interval Baseline: 119600 ± 10600 µM·h
  RR Interval Baseline: 235600 ± 45530 µM·h
[2]; baseline, before first dose, magnesium group n = 14, on sotalol or dofetilide, mean ± SD, listed as Magnesium
  QTc Baseline: 131200 ± 15000 µM·h
[3]; all such patients, normal reference range 33.9-41.9 mEq/IU
  intracellular magnesium of patients with baseline concentrations below the normal reference range, after magnesium supplementation: achieving a concentration within the normal reference range
[3]
  Intracellular magnesium concentration, Baseline: 32.6±2.2 mEq/IU
  Intracellular magnesium concentration, Post-Dosing: 36.2±2.4 mEq/IU
[3]; listed as Magnesium
  Intracellular magnesium concentration, Baseline: 32.2 ± 2.2 mEq/IU
  Intracellular magnesium concentration, Post-Dosing: 36.2 ± 2.4 mEq/IU
[3]; normal range defined as a minimum concentration of 33.9 mEq/IU
  effective in repleting intracellular magnesium levels to normal ranges: 100%

## [Cl-].[Cl-].[Mg+2] [magnesium chloride]
[4]
  bioavailability: about 20%

## [Mg+2].[OH-].[OH-] [magnesium hydroxide]
[5]
  maintaining sinus rhythm: ineffective at maintaining sinus rhythm

## [O]=[Mg] [magnesium oxide]
[4]
  bioavailability: about 2%

## O=S(=O)([O-])[O-].[Mg+2] [magnesium sulfate]
[6]; trial of intravenous magnesium sulfate versus diltiazem, p=0.03
  conversion rate: 57%
[6]; trial of intravenous magnesium sulfate versus verapamil, p=0.01
  conversion rate: 58%

## magnesium gluconate
[4]
  bioavailability: about 20%
